“And” between values parts separate entries of the source, which are not always exact repeats. Equal entries are not always repeated. Inconclusive results and toxic doses are left out. The calls were made as follows: active = survival T/C of 150% or more; inactive = T/C below 125% in these data.
System: P388 leukemia ip, CD2F1 mice, survival T/C
Test: NCI In Vivo Anticancer Drug Screen. Data for tumor model P388 Leukemia (intraperitoneal) in CD2F1 (CDF1) mice
Conditions: endpoint: median survival time, higher = longer survival
Experimental: The antitumor activity of compounds was measured in mice bearing transplantable tumors. Survival or tumor size were measured and the results are expressed as the measurement made in the treated group (T) divided by the measurement made in the vehicle treated control group (C). The tumor model used in this assay is P388 Leukemia (intraperitoneal) in CD2F1 (CDF1) mice

[1] = dose: 50.0 mg/kg/injection, schedule: Q01DX009 (ip), vehicle: saline with Tween-80
[2] = dose: 100.0 mg/kg/injection, schedule: Q01DX009 (ip), vehicle: saline with Tween-80
[3] = dose: 200.0 mg/kg/injection, schedule: Q01DX009 (ip), vehicle: saline with Tween-80
[4] = dose: 25.0 mg/kg/injection, schedule: Q01DX009 (ip), vehicle: saline
[5] = dose: 50.0 mg/kg/injection, schedule: Q01DX009 (ip), vehicle: saline
[6] = dose: 60.0 mg/kg/injection, schedule: Q01DX005 (ip), vehicle: saline with Tween-80
[7] = dose: 120.0 mg/kg/injection, schedule: Q01DX005 (ip), vehicle: saline with Tween-80
[8] = dose: 240.0 mg/kg/injection, schedule: Q01DX005 (ip), vehicle: saline with Tween-80
[9] = dose: 25.0 mg/kg/injection, schedule: Q01DX009 (ip), vehicle: saline with Tween-80
[10] = dose: 50.0 mg/kg/injection, schedule: Q01DX005 (ip), vehicle: saline with Tween-80
[11] = dose: 100.0 mg/kg/injection, schedule: Q01DX005 (ip), vehicle: saline with Tween-80
[12] = dose: 200.0 mg/kg/injection, schedule: Q01DX005 (ip), vehicle: saline with Tween-80
[13] = dose: 60.0 mg/kg/injection, schedule: Q01DX005 (ip), vehicle: Klucel (hydroxypropylcellulose) (HPC)
[14] = dose: 120.0 mg/kg/injection, schedule: Q01DX005 (ip), vehicle: Klucel (hydroxypropylcellulose) (HPC)
[15] = dose: 240.0 mg/kg/injection, schedule: Q01DX005 (ip), vehicle: Klucel (hydroxypropylcellulose) (HPC)

Measured: T/C

C1=CC(=NN=P(c2ccccc2)(c2ccccc2)c2ccccc2)C=C1
inactive: [1] 89 % of control | [2] 102 % of control | [3] 97 % of control

Cc1c(Cl)ccc2c(C(O)CBr)cc(-c3ccccc3)nc12 (centres undefined)
inactive: [2] 103 % of control | [3] 109 % of control | dose: 400.0 mg/kg/injection, schedule: Q01DX009 (ip), vehicle: saline with Tween-80 100 % of control

CC(C)CN1CCOCC1
inactive: [4] 100 % of control | [5] 95 % of control | dose: 100.0 mg/kg/injection, schedule: Q01DX009 (ip), vehicle: saline 104 % of control

COc1cc2c(c(C3C(=O)N(C)c4ccc(Br)cc43)c1OC)OCO2 (centres undefined)
inactive: [6] 95 % of control | [7] 91 % of control | [8] 98 % of control

COC(=O)C1=CN(CCc2ccc(O)cc2)C(=O)C2C1CC(O)C2C (centres undefined)
inactive: dose: 7.5 mg/kg/injection, schedule: Q01DX005 (ip), vehicle: saline with Tween-80 99 % of control | dose: 15.0 mg/kg/injection, schedule: Q01DX005 (ip), vehicle: saline with Tween-80 93 % of control | dose: 30.0 mg/kg/injection, schedule: Q01DX005 (ip), vehicle: saline with Tween-80 94 % of control

CC(CCl)OC(=O)Nc1cccc(C(F)(F)F)c1 (centres undefined)
inactive: [6] 106 % of control | [7] 102 % of control | [8] 107 % of control

CC1=C(C/C=C(\C)CCCC(C)CCCC(C)CCCC(C)C)C(=O)c2ccccc2C1=O (centres undefined)
inactive: dose: 12.5 mg/kg/injection, schedule: Q01DX009 (ip), vehicle: olive oil, sesame oil, peanut oil 102 % of control | dose: 25.0 mg/kg/injection, schedule: Q01DX009 (ip), vehicle: olive oil, sesame oil, peanut oil 105 % of control | dose: 50.0 mg/kg/injection, schedule: Q01DX001 (ip), vehicle: olive oil, sesame oil, peanut oil 92 % of control | dose: 50.0 mg/kg/injection, schedule: Q01DX009 (ip), vehicle: olive oil, sesame oil, peanut oil 101 % of control | dose: 100.0 mg/kg/injection, schedule: Q01DX001 (ip), vehicle: olive oil, sesame oil, peanut oil 99 % of control | dose: 100.0 mg/kg/injection, schedule: Q01DX009 (ip), vehicle: olive oil, sesame oil, peanut oil 100 % of control | dose: 200.0 mg/kg/injection, schedule: Q01DX001 (ip), vehicle: olive oil, sesame oil, peanut oil 99 % of control | dose: 200.0 mg/kg/injection, schedule: Q01DX009 (ip), vehicle: olive oil, sesame oil, peanut oil 101 % of control

C=CCC(C(=O)OCCN(CC)CC)(c1ccccc1)c1ccccc1
inactive: dose: 0.75 mg/kg/injection, schedule: Q01DX009 (ip), vehicle: saline 100 % of control | dose: 1.5 mg/kg/injection, schedule: Q01DX009 (ip), vehicle: saline 94 % of control | dose: 3.0 mg/kg/injection, schedule: Q01DX009 (ip), vehicle: saline 100 % of control | dose: 6.0 mg/kg/injection, schedule: Q01DX009 (ip), vehicle: saline 103 % of control | dose: 12.0 mg/kg/injection, schedule: Q01DX009 (ip), vehicle: saline 100 % of control

COc1cc(NC(=O)CCl)ccc(=O)c1
inactive: dose: 12.5 mg/kg/injection, schedule: Q01DX009 (ip), vehicle: saline with Tween-80 95 % of control | [9] 113 % of control

CCN(CC)CCNc1ccc([N+](=O)[O-])c2sc3cc(Cl)ccc3c(=O)c12
inactive: [10] 100 % of control | [11] 104 % of control | [12] 102 % of control

Cc1c2oc(=O)cc(-c3ccccc3)c2cc2c(=O)ccoc12
inactive: dose: 12.5 mg/kg/injection, schedule: Q01DX005 (ip), vehicle: saline with Tween-80 97 % of control | dose: 25.0 mg/kg/injection, schedule: Q01DX005 (ip), vehicle: saline with Tween-80 92 % of control | [10] 97 % of control | [11] 86 % of control | [12] 86 % of control

CC(=O)Nc1ccc(C(c2c(O)cc(C)[nH]c2=O)c2c(O)cc(C)[nH]c2=O)cc1
inactive: [1] 104 % of control | [2] 112 % of control | [3] 112 % of control

CC1(C)OC(C)(C)C(=N\O)/C1=N/N
inactive: [13] 102 % of control | [14] 102 % of control | [15] 106 % of control

CCOC(=O)c1ccc(S(C)(=O)=O)cc1
inactive: [9] 104 % of control | [1] 95 % of control | [2] 100 % of control | [3] 100 % of control

O=C1C(Br)=C(O)C(c2ccccc2)N1c1ccccc1 (centres undefined)
inactive: [6] 110 % of control | [7] 94 % of control | [8] 113 % of control

COC(=O)c1cccnc1C#N
inactive: dose: 30.0 mg/kg/injection, schedule: Q01DX005 (ip), vehicle: Klucel (hydroxypropylcellulose) (HPC) 100 % of control | [13] 110 % of control | [14] 102 % of control | [15] 112 % of control

CSc1cccc(NC(=O)Nc2ccccc2C(N)=O)c1
inactive: dose: 50.0 mg/kg/injection, schedule: Q01DX009 (ip), vehicle: Klucel (hydroxypropylcellulose) (HPC) 94 % of control | dose: 100.0 mg/kg/injection, schedule: Q01DX009 (ip), vehicle: Klucel (hydroxypropylcellulose) (HPC) 103 % of control | dose: 200.0 mg/kg/injection, schedule: Q01DX009 (ip), vehicle: Klucel (hydroxypropylcellulose) (HPC) 94 % of control

CCCN(CCC)CC(=O)NC1CC(OC2CC(O)(C(C)=O)Cc3c(O)c4c(c(O)c32)C(=O)c2c(OC)cccc2C4=O)OC(C)C1O (centres undefined)
inactive: dose: 0.25 mg/kg/injection, schedule: Q01DX009 (ip), vehicle: water 107 % of control | dose: 0.5 mg/kg/injection, schedule: Q01DX009 (ip), vehicle: water 101 % of control | dose: 1.0 mg/kg/injection, schedule: Q01DX009 (ip), vehicle: water 107 % of control | dose: 2.0 mg/kg/injection, schedule: Q01DX009 (ip), vehicle: water 103 % of control | dose: 4.0 mg/kg/injection, schedule: Q01DX009 (ip), vehicle: water 100 % of control | dose: 8.0 mg/kg/injection, schedule: Q01DX009 (ip), vehicle: water 107 % of control

NC1C(=O)Nc2ccccc21 (centres undefined)
inactive: dose: 60.0 mg/kg/injection, schedule: Q01DX005 (ip), vehicle: saline 95 % of control | dose: 120.0 mg/kg/injection, schedule: Q01DX005 (ip), vehicle: saline 103 % of control

N=C(N)SCCCC(=O)O
inactive: dose: 12.5 mg/kg/injection, schedule: Q01DX009 (ip), vehicle: saline 102 % of control | [4] 120 % of control | [5] 95 % of control

COC(=O)CC1(C(=O)OC)C2=C(CCSC2)N2CCCC21 (centres undefined)
inactive: dose: 3.75 mg/kg/injection, schedule: Q01DX009 (ip), vehicle: Klucel (hydroxypropylcellulose) (HPC) 97 % of control | dose: 7.5 mg/kg/injection, schedule: Q01DX009 (ip), vehicle: Klucel (hydroxypropylcellulose) (HPC) 97 % of control | dose: 15.0 mg/kg/injection, schedule: Q01DX009 (ip), vehicle: Klucel (hydroxypropylcellulose) (HPC) 100 % of control | dose: 30.0 mg/kg/injection, schedule: Q01DX009 (ip), vehicle: Klucel (hydroxypropylcellulose) (HPC) 100 % of control

CC(/C=C/C1(C)C(C)CCC(=O)C1C)=C\Cc1c(O)c(Cl)c(C)c(C=O)c1O (centres undefined)
inactive: dose: 3.12 mg/kg/injection, schedule: Q01DX009 (ip), vehicle: Klucel (hydroxypropylcellulose) (HPC) 101 % of control and 103 % of control | dose: 6.25 mg/kg/injection, schedule: Q01DX009 (ip), vehicle: Klucel (hydroxypropylcellulose) (HPC) 103 % of control and 106 % of control | dose: 12.5 mg/kg/injection, schedule: Q01DX009 (ip), vehicle: Klucel (hydroxypropylcellulose) (HPC) 106 % of control and 113 % of control

Source: PubChem BioAssay AID330 (DTP/NCI, 2004)
